In ChEMBL document CHEMBL5528066, “Discovery of Novel N-(Anthracen-9-ylmethyl) Benzamide Derivatives as ZNF207 Inhibitors Promising in Treating Glioma” (J Med Chem, 2024):
Activity calls are given as the source filed them. The rule behind the calls is not given here.

Legend:
[1] = Drug concentration in male Sprague-Dawley rat liver at 45 mg/kg, po measured after 8 hrs by LC-MS/MS analysis; format: ADME, organism-based; details: read-out: Ct
U-251 [2] = test: Inhibition of sphere formation in human U-251MG cells assessed as fold reduction in sphere initiating frequency at 4 uM incubated for 10 days by microscopic analysis relative to control; format: functional; details: time 10 day
LN-229 [3] = test: Inhibition of sphere formation in human LN-229 cells assessed as fold reduction in sphere initiating frequency at 4 uM incubated for 10 days by microscopic analysis relative to control; format: functional; details: time 10 day
[4] = Toxicity in male C57BL/6 mouse assessed as change in cellular structure of liver at 45 mg/kg, po administered once a day for 2 weeks by H and E staining based analysis; format: organism-based; details: in vivo, 336 h
[5] = Toxicity in male C57BL/6 mouse assessed as change in cellular structure of brain at 45 mg/kg, po administered once a day for 2 weeks by H and E staining based analysis; format: organism-based; details: in vivo, 336 h
Hs 683 [6] = test: Inhibition of sphere formation in human Hs 683 cells at 8 uM measured after 10 days in well containing 10 cells by microscopic analysis; format: functional, cell-based; details: time 10.0 day
[7] = Toxicity in male C57BL/6 mouse assessed as change in cellular structure of intestine at 45 mg/kg, po administered once a day for 2 weeks by H and E staining based analysis; format: organism-based; details: in vivo, 336 h
Hs 683 [8] = test: Inhibition of sphere formation in human Hs 683 cells at 2 uM measured after 10 days in well containing 1 cells by microscopic analysis; format: functional, cell-based; details: time 10.0 day
LN-229 [9] = test: Inhibition of cell migration in human LN-229 cells assessed as reduction in wound closure ability at 5 uM measured after 24 hrs by wound healing assay relative to control; format: functional
U-251 [10] = test: Induction of apoptosis in human U-251MG cells assessed as apoptotic cells at 2.5 uM incubated for 24 hrs by Annexin V-FITC/PI staining based flow cytometry analysis relative to control; format: functional
LN-229 [11] = test: Inhibition of sphere formation in human LN-229 cells at 8 uM measured after 10 days in well containing 1 cells by microscopic analysis; format: functional, cell-based; details: time 10.0 day
U-251 [12] = test: Inhibition of colony formation in human U-251MG cells assessed as reduction in number of cell clones treated on day 1 and measured after 14 days by crystal violet staining based microscopic analysis; format: functional; details: dose 0.625-5 µM, time 14.0 day
Hs 683 [13] = test: Inhibition of sphere formation in human Hs 683 cells at 2 uM measured after 10 days in well containing 10000 cells by microscopic analysis; format: functional, cell-based; details: time 10.0 day
[14] = Toxicity in male C57BL/6 mouse assessed as change in cellular structure of spleen at 45 mg/kg, po administered once a day for 2 weeks by H and E staining based analysis; format: organism-based; details: in vivo, 336 h
[15] = Drug concentration in female Sprague-Dawley rat stomach at 45 mg/kg, po measured after 8 hrs by LC-MS/MS analysis; format: ADME, organism-based; details: read-out: Ct
[16] = Drug concentration in male Sprague-Dawley rat kidney at 45 mg/kg, po measured after 8 hrs by LC-MS/MS analysis; format: ADME, organism-based; details: read-out: Ct
Hs 683 [17] = test: Inhibition of sphere formation in human Hs 683 cells assessed as fold reduction in sphere initiating frequency at 8 uM incubated for 10 days by microscopic analysis relative to control; format: functional; details: time 10 day
[18] = Toxicity in female C57BL/6 mouse assessed as change in cellular structure of stomach at 45 mg/kg, po administered once a day for 2 weeks by H and E staining based analysis; format: organism-based; details: in vivo, 336 h
Hs 683 [19] = test: Antiproliferative activity against human Hs 683 cells assessed as inhibition of cell growth measured after 72 hrs by CCK-8 assay; format: functional, cell-based; details: Hs 683, 72 h
LN-229-Luc = test: Antitumor activity against human Ln-229-Luc cells xenografted in po dosed BALB/c nude mouse administered once a day and measured after 3 to 31 days; format: functional, organism-based; details: dose 15-45 mg/kg, time 3-31 day
U-251 [20] = test: Inhibition of colony formation in human U-251MG cells assessed as reduction in colony area at 2.5 uM treated on day 1 and measured after 14 days by crystal violet staining based microscopic analysis relative to control; format: functional; details: U-251, 336 h, time 14 day
[21] = target: BUB3-interacting and GLEBS motif-containing protein ZNF207 (Homo sapiens, UniProt O43670); test: Binding affinity to ZNF207 in human U-251MG cells assessed as thermal stabilization by measuring melting temperature at 30 uM incubated for 3 hrs by CETSA (reference value: 48.7 degreeC); format: cell-based
[22] = Toxicity in female C57BL/6 mouse assessed as change in cellular structure of thymus at 45 mg/kg, po administered once a day for 2 weeks by H and E staining based analysis; format: organism-based; details: in vivo, 336 h
H4 [23] = test: Inhibition of sphere formation in human H4 cells at 8 uM measured after 10 days in well containing 10000 cells by microscopic analysis; format: functional, cell-based; details: time 10.0 day
Hs 683 [24] = test: Inhibition of colony formation in human Hs 683 cells assessed as reduction in number of cell clones treated on day 1 and measured after 14 days by crystal violet staining based microscopic analysis; format: functional; details: dose 0.625-5 µM, time 14.0 day
LN-229 [25] = test: Inhibition of sphere formation in human LN-229 cells at 4 uM measured after 10 days in well containing 100 cells by microscopic analysis; format: functional, cell-based; details: time 10.0 day
[26] = Drug concentration in female Sprague-Dawley rat lung at 45 mg/kg, po measured after 8 hrs by LC-MS/MS analysis; format: ADME, organism-based; details: read-out: Ct
LN-229 [27] = test: Inhibition of sphere formation in human LN-229 cells at 1 uM measured after 10 days in well containing 10000 cells by microscopic analysis; format: functional, cell-based; details: time 10.0 day
A549 = test: Antiproliferative activity against human A549 cells assessed as inhibition of cell growth incubated for 72 hrs by CCK-8 assay; format: functional, cell-based; details: A549, 72 h
LN-229 [28] = test: Inhibition of colony formation in human LN-229 cells assessed as reduction in colony area at 2.5 uM treated on day 1 and measured after 14 days by crystal violet staining based microscopic analysis relative to control; format: functional; details: LN-229, 336 h, time 14 day
[29] = Drug concentration in female Sprague-Dawley rat spleen at 45 mg/kg, po measured after 8 hrs by LC-MS/MS analysis; format: ADME, organism-based; details: read-out: Ct
U-251 [30] = test: Inhibition of sphere formation in human U-251MG cells at 4 uM measured after 10 days in well containing 1 cells by microscopic analysis; format: functional, cell-based; details: time 10.0 day
H4 [31] = test: Inhibition of sphere formation in human H4 cells at 4 uM measured after 10 days in well containing 10000 cells by microscopic analysis; format: functional, cell-based; details: time 10.0 day
Hs 683 [32] = test: Inhibition of sphere formation in human Hs 683 cells at 4 uM measured after 10 days in well containing 1 cells by microscopic analysis; format: functional, cell-based; details: time 10.0 day
H4 [33] = test: Inhibition of sphere formation in human H4 cells at 4 uM measured after 10 days in well containing 1 cells by microscopic analysis; format: functional, cell-based; details: time 10.0 day
LN-229 [34] = test: Antitumor activity against human LN-229 cells xenografted in BALB/c nude mouse assessed as tumor growth inhibition at 15 to 45 mg/kg, po administered once a day and measured every 2 days for 49 days relative to control; format: functional; details: dose 15-45 mg/kg, time 49 day
U-251 [35] = test: Inhibition of sphere formation in human U-251MG cells assessed as fold reduction in sphere initiating frequency at 2 uM incubated for 10 days by microscopic analysis relative to control; format: functional; details: time 10 day

Sequence of BUB3-interacting and GLEBS motif-containing protein ZNF207 (O43670 whole entry): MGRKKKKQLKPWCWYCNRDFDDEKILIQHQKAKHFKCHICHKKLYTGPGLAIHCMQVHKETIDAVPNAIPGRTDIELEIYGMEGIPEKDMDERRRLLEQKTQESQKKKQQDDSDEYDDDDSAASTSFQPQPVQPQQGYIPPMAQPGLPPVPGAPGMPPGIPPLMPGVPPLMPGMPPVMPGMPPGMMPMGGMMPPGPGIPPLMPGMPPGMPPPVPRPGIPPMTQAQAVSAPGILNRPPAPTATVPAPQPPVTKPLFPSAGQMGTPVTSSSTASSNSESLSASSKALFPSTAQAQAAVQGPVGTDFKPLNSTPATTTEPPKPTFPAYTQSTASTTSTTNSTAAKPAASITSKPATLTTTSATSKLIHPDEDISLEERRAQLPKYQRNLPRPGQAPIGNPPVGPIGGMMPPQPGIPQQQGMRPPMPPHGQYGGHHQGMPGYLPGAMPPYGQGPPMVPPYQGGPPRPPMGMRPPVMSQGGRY

SMILES: N#CC1(C(=O)NCCC2CCN(Cc3ccccc3)CC2)CC2(Br)c3ccccc3C1c1ccccc12 (racemic)
- concentration at 8 h [1]: 779 ng/g
- fold change (FC) (U-251 [2]): 78.18
- fold change (FC) (LN-229 [3]): 36.42
- Activity [4]: Non-Toxic
- Activity [5]: Non-Toxic
- inhibition (Hs 683 [6]): Active
- Activity [7]: Non-Toxic
- inhibition (Hs 683 [8]): Active
- inhibition at 5 µM (LN-229 [9]): 16.6%
- Activity (U-251 [10]): ~20%
- inhibition (LN-229 [11]): Active
- inhibition (U-251 [12]): Dose-Dependent Effect
- inhibition (Hs 683 [13]): inactive
- Activity [14]: Non-Toxic
- concentration at 8 h [15]: 4370 ng/g
- concentration at 8 h [16]: 85.1 ng/g
- fold change (FC) (Hs 683 [17]): 104.96
- Activity [18]: Non-Toxic
- IC50 (Hs 683 [19]): 8.53 µM
- Activity (LN-229-Luc): Dose-Dependent Effect
- inhibition at 2.5 µM (U-251 [20]): 100%
- Tm [21]: 53.9 °C
- Activity [22]: Non-Toxic
- inhibition (H4 [23]): inactive
- inhibition (Hs 683 [24]): Dose-Dependent Effect
- inhibition (LN-229 [25]): Active
- concentration at 8 h [26]: 6360 ng/g
- inhibition (LN-229 [27]): inactive
- IC50 (A549): 9.68 µM
- inhibition at 2.5 µM (LN-229 [28]): 100%
- concentration at 8 h [29]: 2330 ng/g
- inhibition (U-251 [30]): Active
- inhibition (H4 [31]): inactive
- inhibition (Hs 683 [32]): Active
- inhibition (H4 [33]): Active
- TGI (LN-229 [34]): ~55%
- fold change (FC) (U-251 [35]): 35.63
